{"source": "patent US12029738B2", "about": "“Antiproliferative compounds and methods of use thereof” (Celgene Corporation, priority 2017, dated 2024)", "key": {"[1]": {"test_system": "MM cell lines (NCI-H929, NCI-H929-1051, OPM2, OPM2-P10)", "assay": "Cell proliferation assay (CTG, 120 h), four cell lines together", "assay_type": "cell-based", "conditions": "Homo sapiens, range over four cell lines and both compounds, read-out: antiproliferative IC50 values (range)", "experimental": "Cell Culture Materials: Human multiple myeloma cell lines were purchased from the vendors and cultured at 37° C. with 5% CO2 in the media as indicated in Table 1. Lenalidomide and pomalidomide resistant cell lines were obtained by methods as generally described previously (Lopez-Girona et al Leukemia 2012; 26(11): 2335). All cell lines were kept in log phase, and cell density and viability were monitored by trypan blue exclusion using the Vi-cell XR cell viability analyzer (Beckman Coulter, Brea, CA).\nPreparation of Solutions of Test Article: Compounds were plated into black 384-well plates (Corning Inc.) to a final DMSO volume of 0.1% assuming a maximal volume of 50 μL. […]\nCell Proliferation Assays: The effect of compounds on the proliferation/viability of the hematological cell lines (Table 1), was assessed after 120 h incubation using CTG (Promega), according to manufacturer's instructions. […] At 120 h, 25 μL per well of CTG was dispensed by a Multidrop Combi Reagent Dispenser and adenosine triphosphate (ATP) release by viable cells was measured as relative luminescence units after 30 minutes using the Envision platform.\nResults. […] Proliferation was assessed using the CellTitre-Glo© assay. […] The IC50 for inhibition of cell growth by the compounds was determined for each cell line using ActivityBase software."}, "[2]": {"biological_target": "T1, CYP2C19 (Homo sapiens, UniProt P33261)", "T1 construct": "from tissue; host or cells: pooled human liver microsomes", "T1 sequence (P33261 whole entry)": "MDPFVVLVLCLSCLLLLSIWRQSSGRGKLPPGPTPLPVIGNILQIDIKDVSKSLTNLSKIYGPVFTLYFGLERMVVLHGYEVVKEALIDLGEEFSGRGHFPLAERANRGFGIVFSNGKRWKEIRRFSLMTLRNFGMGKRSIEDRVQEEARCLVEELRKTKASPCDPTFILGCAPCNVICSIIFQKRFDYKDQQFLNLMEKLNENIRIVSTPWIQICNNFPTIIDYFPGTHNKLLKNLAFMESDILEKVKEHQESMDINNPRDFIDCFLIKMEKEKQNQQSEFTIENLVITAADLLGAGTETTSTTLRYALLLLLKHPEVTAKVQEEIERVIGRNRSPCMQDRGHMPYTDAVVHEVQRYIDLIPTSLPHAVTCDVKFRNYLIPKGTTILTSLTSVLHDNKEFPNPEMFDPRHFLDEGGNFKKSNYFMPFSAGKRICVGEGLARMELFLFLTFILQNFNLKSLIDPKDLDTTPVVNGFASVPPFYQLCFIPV", "assay": "CYP inhibition in pooled human liver microsomes", "assay_type": "in vitro ADME", "experimental": "(§1) Methods. […] In addition, the compounds were evaluated for their potential to act as a time-dependent inhibitors at the same concentrations mentioned above. […] In addition to appropriate vehicle controls, known direct inhibitors and time-dependent inhibitors of CYP isoforms were included as positive controls. Following the incubation, concentrations of probe substrate metabolites were quantified using established LC/MS/MS methods. The extent of inhibition was expressed as the percentage of control activity."}, "[3]": {"test_system": "CYP3A4/5", "assay": "CYP inhibition in pooled human liver microsomes", "assay_type": "in vitro ADME", "experimental": "as §1"}, "[4]": {"test_system": "RPMI-8226", "assay": "PBMC and MM cell treatment assay (single culture vs co-culture)", "assay_type": "cell-based", "conditions": "Homo sapiens, RPMI-8226, RPMI-8226, read-out: Immune-mediated Cell Killing IC50"}, "[5]": {"test_system": "OPM2", "assay": "PBMC and MM cell treatment assay (single culture vs co-culture)", "assay_type": "cell-based", "conditions": "Homo sapiens, OPM-2, OPM2, read-out: Immune-mediated Cell Killing IC50", "experimental": "PBMC and MM Cell Treatment Assay Procedure. Ninety-six-well dishes were pre-coated with anti-CD3 antibody (OKT3, 3 μg/mL) and incubated at 4° C. overnight before the start of the experiment. Frozen PBMC donor cells were thawed at 37° C. for 2 minutes in RPMI medium with 10% FBS and cell counts and viability were measured on the Vi-CELL analyzer. Peripheral blood mononuclear cells were washed and diluted to 1×10^6 cells/mL and dispensed into the compound-treated plates in a total volume of 200 μL. Cells were incubated with compounds for 2 h before being transferred onto anti-CD3-coated plates and incubated for an additional 72 h. At the same time, MM cell lines (NCI-H929, H929-1051, OPM2, OPM2-P10) were diluted to a final concentration of 0.1×10^6 cells/mL and labeled with CellTrace CFSE according to manufacturer's instructions. Multiple myeloma cell lines were then dispensed into compound-treated plates at a total volume of 200 μL and incubated for 72 h. After 72 h, the PBMCs and MM cells were counted and transferred into a U-bottom 96-well plate at a final T:E ratio of 1:5. After 24 h coculture, specific target cell lysis by PBMC cells was measured using Annexin V-AF647 and 7-AAD according to manufacturer's instructions and samples were run on the Attune NxT Cytometer.\nBecause preincubation of immune cells with Compound 2 enhanced the targeting and lysing of MM cells, the effect of preincubation of MM cells with Compound 2 on their susceptibility to immune-mediated killing was also explored (FIG. 16A, FIG. 16B, FIG. 16C, and FIG. 16D, Table 12). Four MM cell lines and anti-CD3 antibody-activated PBMCs were separately preincubated with Compound 2, lenalidomide, or pomalidomide for 72 h. When anti-CD3 antibody-activated PBMCs and MM lines were both pretreated with Compound 2, lenalidomide, or pomalidomide, followed by co-culture, the effects on the PBMC-induced MM cell lysis were enhanced both in the potency and magnitude of the killing response. […] For the pomalidomide-resistant OPM2-P10 cell line, Compound 2 treatment of the MM cells enhanced the immune-mediated killing by ˜3000-fold (Table 12)."}}, "note": "“Also recorded” adds a separate entry of the source. Read-outs that look alike come from different tables or passages of the source.", "data": [{"compound": "N#Cc1ccc(N2CCN(Cc3ccc(COc4cccc5c4CN(C4CCC(=O)NC4=O)C5=O)cc3)CC2)c(F)c1", "note": "(racemic) [Compound 1, 4-(4-(4-(((2-(2,6-dioxopiperidin-3-yl)-1-oxoisoindolin-4-yl)oxy)methyl)benzyl)piperazin-1-yl)-3-fluorobenzonitrile]", "values": [{"measurement": "IC50", "setting": "[1]", "value": "0.07 to 19", "unit": "nM"}]}, {"compound": "N#Cc1ccc(N2CCN(Cc3ccc(COc4cccc5c4CN([C@H]4CCC(=O)NC4=O)C5=O)cc3)CC2)c(F)c1", "note": "[Compound 2, (S)-4-(4-(4-(((2-(2,6-dioxopiperidin-3-yl)-1-oxoisoindolin-4-yl)oxy)methyl)benzyl)piperazin-1-yl)-3-fluorobenzonitrile]", "values": [{"measurement": "IC50", "setting": "[1]", "value": "0.07 to 19", "unit": "nM"}, {"measurement": "IC50", "setting": "[2]", "value": "> 30000", "unit": "nM"}, {"measurement": "inhibition at 30 µM", "setting": "[2]; human, microsomes", "value": 41, "unit": "%"}, {"measurement": "IC50", "setting": "[3]; human, microsomes", "value": "> 30000", "unit": "nM"}, {"measurement": "inhibition at 30 µM", "setting": "[3]; human, microsomes, direct inhibition of CYP3A4/5 (testosterone)", "value": 46, "unit": "%"}, {"measurement": "inhibition at 30 µM", "setting": "[3]; human, microsomes, inhibition of CYP3A4/5 (testosterone) activity after preincubation with NADPH", "value": 59, "unit": "%"}, {"measurement": "inhibition at 30 µM", "setting": "[3]; human, microsomes, inhibition of CYP3A4/5 (testosterone) activity after preincubation without NADPH", "value": 23, "unit": "%"}, {"measurement": "IC50", "setting": "[4]; Co-culture with PBMCs", "value": 0.0839, "unit": "nM"}, {"measurement": "IC50", "setting": "[4]; Single culture", "value": 13.4, "unit": "nM"}, {"measurement": "IC50", "setting": "[5]; Co-culture with PBMCs", "value": 0.0936, "unit": "nM"}, {"measurement": "IC50", "setting": "[5]; Single culture", "value": 0.3, "unit": "nM"}]}, {"compound": "O=C1CC[C@H](N2Cc3c(OCc4ccc(CN5CCN(c6ccc(F)cc6F)CC5)cc4)cccc3C2=O)C(=O)N1", "note": "[Compound B]", "values": [{"measurement": "direct inhibition of CYP2C19", "setting": "[2]; at 30 μM, human liver microsomes", "value": 45, "unit": "%"}, {"measurement": "time-dependent inhibition of CYP2C19", "setting": "[2]; up to 30 μM, 30 minute preincubation with or without NADPH", "value": "little to no time-dependent inhibition; also recorded: not a time-dependent inhibitor"}, {"measurement": "IC50", "setting": "[3]; 30 minute preincubation with NADPH, substrate midazolam, read-out: shifted IC50 value (with NADPH) CYP3A4/5, midazolam", "value": 2230, "unit": "nM"}, {"measurement": "IC50", "setting": "[3]; 30 minute preincubation with NADPH, substrate testosterone, read-out: shifted IC50 value (with NADPH) CYP3A4/5, testosterone", "value": 1930, "unit": "nM"}, {"measurement": "IC50", "setting": "[3]; substrate testosterone, read-out: direct inhibition IC50 CYP3A4/5 (testosterone)", "value": 2920, "unit": "nM"}, {"measurement": "time-dependent inhibition of CYP3A4/5 (overall finding)", "setting": "[3]; up to 30 μM, 30 minute preincubation", "value": "inhibited CYP3A4/5 in a time-dependent manner; also recorded: time-dependent inhibitor of CYP3A4/5"}, {"measurement": "direct inhibition of CYP3A4/5 (midazolam)", "setting": "[3]; up to 30 μM, substrate midazolam", "value": "up to 30%"}]}, {"compound": "Nc1cccc2c1C(=O)N(C1CCC(=O)NC1=O)C2=O", "note": "(centres unmarked) [Pomalidomide, pomalidomide]", "values": [{"measurement": "IC50", "setting": "[4]; Co-culture with PBMCs", "value": 67.6, "unit": "nM"}, {"measurement": "IC50", "setting": "[4]; Single culture", "value": "> 10000", "unit": "nM"}, {"measurement": "IC50", "setting": "[5]; Co-culture with PBMCs", "value": 168, "unit": "nM"}, {"measurement": "IC50", "setting": "[5]; Single culture", "value": 627, "unit": "nM"}]}]}
